According to patent US8324258B2, “F1F0-ATPase inhibitors and related methods” (The Regents of the University of Michigan, priority 2007, dated 2012):

Key:
Ramos cells = assay: Cytotoxicity (cell death) in Ramos cells; format: cell-based
Experimental: (§1) The compounds listed in Table 9 were tested for activity against F1F0-ATPase by measuring ATP synthesis and ATP hydrolysis. In addition, the compounds were assessed for cytotoxicity in Ramos cells Inhibition of ATP synthesis and hydrolysis by the F1F0-ATPase and cytotoxicity in Ramos cells was measured as described in K. M. Johnson et al. Chemistry & Biology 2005, 12, 485-496.

F1F0-ATPase [1] = target: T1, F1F0-ATPase (Bos taurus, UniProt P13621); assay: Inhibition of ATP synthesis by the F1F0-ATPase; format: biochemical; conditions: for ATP Synthesis (IC40 μM): IC40: concentration for 40% inhibition
Experimental: as §1

F1F0-ATPase [2] = target: T1, F1F0-ATPase; assay: Inhibition of ATP hydrolysis by the F1F0-ATPase; format: biochemical; conditions: for ATP Hydrolysis (IC40 μM): IC40: concentration for 40% inhibition
Experimental: as §1

Molecule | Ramos cell death (relative to Bz-423) (Ramos cells; Ramos cells, multiple of Bz-423) [×Bz-423] | syn (relative to Bz-423) (F1F0-ATPase [1]; ATP synthesis, multiple of Bz-423) [×Bz-423] | hydro (relative to Bz-423) (F1F0-ATPase [2]; ATP hydrolysis, multiple of Bz-423) [×Bz-423] | EC50 (Ramos cells; Ramos cells) [µM] | ATP Synthesis (IC40 μM) (F1F0-ATPase [1]) [µM] | ATP Hydrolysis (IC40 μM) (F1F0-ATPase [2]) [µM] | EC50 (Ramos cells; Homo sapiens, Ramos) [µM]
CCc1cccc(CC)c1NC(=NC(=O)c1cccc(Cl)c1)NCCc1c[nH]cn1 [III-44, (Z/E)-N-((2-(1H-imidazol-4-yl)ethylamino)(2,6-diethylphenylamino)methylene)-3-chlorobenzamide] | 2.5 | 0.7 | 0.8 | – | – | – | –
N#Cc1cccc(-c2ccc(NC(=NC(=O)c3cccc(Cl)c3)NCCc3c[nH]cn3)cc2)c1 [III-45, (Z/E)-N-((2-(1H-imidazol-4-yl)ethylamino)(3′-cyanobiphenyl-4-ylamino)methylene)-3-chlorobenzamide] | – | – | – | < 10 | <10 | >30 | –
O=C(/N=C(\Nc1ccc(-c2ccccc2)cc1)Nc1cccc2[nH]ccc12)c1cccc(Cl)c1 [IV-1, (Z/E)-N-((1H-indol-4-ylamino)(biphenyl-4-ylamino)methylene)-3-chlorobenzamide] | – | – | – | – | >10 | >30 | > 10
O=C(/N=C(/NCCn1ccnc1)Nc1ccc(-c2ccccc2)cc1)c1cccc(Cl)c1 [IV-2, (Z/E)-N-((2-(1H-imidazol-1-yl)ethylamino)(biphenyl-4-ylamino)methylene)-3-chlorobenzamide] | – | – | – | – | <10 | >10 | > 10
O=C(/N=C(/NCCc1nc[nH]n1)Nc1ccc(-c2ccccc2)cc1)c1cccc(Cl)c1 [IV-3, (Z/E)-N-((2-(1H-1,2,4-triazol-3-yl)ethylamino)(biphenyl-4-ylamino)methylene)-3-chlorobenzamide] | – | – | – | – | <10 | <10 | > 10
O=C(/N=C(/NCCc1cn[nH]c1)Nc1ccc(-c2ccccc2)cc1)c1cccc(Cl)c1 [IV-4, (Z/E)-N-((2-(1H-pyrazol-4-yl)ethylamino)(biphenyl-4-ylamino)methylene)-3-chlorobenzamide] | – | – | – | – | <10 | >10 | < 10
C[C@@H](Cc1c[nH]cn1)N/C(=N/C(=O)c1cccc(Cl)c1)Nc1ccc(-c2ccccc2)cc1 [IV-5, (S,Z/E)-N-((1-(1H-imidazol-4-yl)propan-2-ylamino)(biphenyl-4-ylamino)methylene)-3-chlorobenzamide] | – | – | – | – | <10 | <10 | < 10
C[C@H](Cc1c[nH]cn1)N/C(=N/C(=O)c1cccc(Cl)c1)Nc1ccc(-c2ccccc2)cc1 [IV-6, (R,Z/E)-N-((1-(1H-imidazol-4-yl)propan-2-ylamino)(biphenyl-4-ylamino)methylene)-3-chlorobenzamide] | – | – | – | – | <10 | <10 | < 10
O=C(/N=C(/NCCN1CCNC1=O)Nc1ccc(-c2ccccc2)cc1)c1cccc(Cl)c1 [IV-7, (Z/E)-N-((biphenyl-4-ylamino)(2-(2-oxoimidazolidin-1-yl)ethylamino)methylene)-3-chlorobenzamide] | – | – | – | – | >20 | >30 | > 30
O=C(/N=C(\Nc1ccc(-c2ccccc2)cc1)Nc1ccc2[nH]ccc2c1)c1cccc(Cl)c1 [IV-8, (Z/E)-N-((1H-indol-5-ylamino)(biphenyl-4-ylamino)methylene)-3-chlorobenzamide] | – | – | – | – | >10 | >30 | < 10
O=C(/N=C(/NCc1cccc2[nH]ccc12)Nc1ccc(-c2ccccc2)cc1)c1cccc(Cl)c1 [IV-9] | – | – | – | – | >20 | >30 | > 30
Cc1ccc(C(=O)N=C(NCCc2c[nH]cn2)Nc2cccc(-c3ccccc3)c2)cc1 [VI-1, (Z/E)-N-((2-(1H-imidazol-4-yl)ethylamino)(biphenyl-3-ylamino)methylene)-4-methylbenzamide] | – | – | – | > 10 | <10 | >10 | –
Cc1cccc(C(=O)N=C(NCCc2c[nH]cn2)Nc2cccc(-c3ccccc3)c2)c1 [VI-2, (Z/E)-N-((2-(1H-imidazol-4-yl)ethylamino)(biphenyl-3-ylamino)methylene)-3-methylbenzamide] | – | – | – | > 10 | <10 | >10 | –
O=C(N=C(NCCc1c[nH]cn1)Nc1cccc(-c2ccccc2)c1)c1cccc(C(F)(F)F)c1 [VI-3, (Z/E)-N-((2-(1H-imidazol-4-yl)ethylamino)(biphenyl-3-ylamino)methylene)-3-(trifluoromethyl)benzamide] | – | – | – | < 10 | <10 | >10 | –
O=C(N=C(NCCc1c[nH]cn1)Nc1cccc(-c2ccccc2)c1)c1ccc(C(F)(F)F)cc1 [VI-4, (Z/E)-N-((2-(1H-imidazol-4-yl)ethylamino)(biphenyl-3-ylamino)methylene)-4-(trifluoromethyl)benzamide] | – | – | – | > 10 | <10 | >10 | –
N#Cc1cccc(C(=O)N=C(NCCc2c[nH]cn2)Nc2cccc(-c3ccccc3)c2)c1 [VI-5, (Z/E)-N-((2-(1H-imidazol-4-yl)ethylamino)(biphenyl-3-ylamino)methylene)-3-cyanobenzamide] | – | – | – | > 10 | >10 | >30 | –
N#Cc1ccc(C(=O)N=C(NCCc2c[nH]cn2)Nc2cccc(-c3ccccc3)c2)cc1 [VI-6, (Z/E)-N-((2-(1H-imidazol-4-yl)ethylamino)(biphenyl-3-ylamino)methylene)-4-cyanobenzamide] | – | – | – | > 10 | <10 | >30 | –
O=C(N=C(NCCc1c[nH]cn1)Nc1cccc(-c2ccccc2)c1)c1cccc(F)c1 [VI-7, (Z/E)-N-((2-(1H-imidazol-4-yl)ethylamino)(biphenyl-3-ylamino)methylene)-3-fluorobenzamide] | – | – | – | > 10 | <10 | >10 | –
O=C(N=C(NCCc1c[nH]cn1)Nc1cccc(-c2ccccc2)c1)c1ccc(F)cc1 [VI-8, (Z/E)-N-((2-(1H-imidazol-4-yl)ethylamino)(biphenyl-3-ylamino)methylene)-4-fluorobenzamide] | – | – | – | > 10 | <10 | >10 | –
O=C(N=C(NCCc1c[nH]cn1)Nc1cccc(-c2ccccc2)c1)c1ccc(Cl)c(Cl)c1 [VI-9, (Z/E)-N-((2-(1H-imidazol-4-yl)ethylamino)(biphenyl-3-ylamino)methylene)-3,4-dichlorobenzamide] | – | – | – | < 10 | <10 | <10 | –
O=C(N=C(NCCc1c[nH]cn1)Nc1cccc(-c2ccccc2)c1)c1cccc(Br)c1 [VI-10, (Z/E)-N-((2-(1H-imidazol-4-yl)ethylamino)(biphenyl-3-ylamino)methylene)-3-bromobenzamide] | – | – | – | < 10 | <10 | >10 | –
O=C(N=C(NCCc1c[nH]cn1)Nc1cccc(-c2ccccc2)c1)c1ccc(Br)cc1 [VI-11, (Z/E)-N-((2-(1H-imidazol-4-yl)ethylamino)(biphenyl-3-ylamino)methylene)-4-bromobenzamide] | – | – | – | < 10 | <10 | >10 | –
O=C(N=C(NCCc1c[nH]cn1)Nc1cccc(-c2ccccc2)c1)c1cccc([N+](=O)[O-])c1 [VI-12, (Z/E)-N-((2-(1H-imidazol-4-yl)ethylamino)(biphenyl-3-ylamino)methylene)-3-nitrobenzamide] | – | – | – | > 10 | <10 | >30 | –
O=C(N=C(NCCc1c[nH]cn1)Nc1cccc(-c2ccccc2)c1)c1ccc([N+](=O)[O-])cc1 [VI-13, (Z/E)-N-((2-(1H-imidazol-4-yl)ethylamino)-(biphenyl-3-ylamino)methylene)-4-nitrobenzamide] | – | – | – | < 10 | <10 | >30 | –
O=C(N=C(NCCc1c[nH]cn1)Nc1cccc(-c2ccccc2)c1)c1ccc(Cl)cc1 [VI-14, (Z/E)-N-((2-(1H-imidazol-4-yl)ethylamino)(biphenyl-3-ylamino)methylene)-4-chlorobenzamide] | – | – | – | > 10 | <10 | >10 | –
(Z/E)-N-((2-(1H-imidazol-5-yl)ethylamino)(4-(methylsulfonyl)phenylamino)methylene)-3-chlorobenzamide [III-36] | – | – | – | > 30 | >20 | >30 | –
